Laboratory results from patent publication US5763635A, “Tetrahydronaphthalene derivatives substituted in the 8 position with alkyhidene groups having retinoid and/or retinoid antagonist-like biological activity” (ALLERGAN, priority 1996, dated 1998).

System: ornithine decarboxylase (ODC)
Experiment: Inhibition of TPA induction of ornithine decarboxylase (ODC assay)
Format: biochemical
From the text: A classic measure of retinoic acid activity involves measuring the effects of retinoic acid on ornithine decarboxylase. The original work on the correlation between retinoic acid and decrease in cell proliferation was done by Verma & Boutwell, Cancer Research, 1977, 37,2196-2201. That reference discloses that ornithine decarboxylase (ODC) activity increased precedent to polyamine biosynthesis. It has been established elsewhere that increases in polyamine synthesis can be correlated or associated with cellular proliferation. Thus, if ODC activity could be inhibited, cell hyperproliferation could be modulated. Although all cases for ODC activity increases are unknown, it is known that 12-O-tetradecanoylphorbol-13-acetate (TPA) induces ODC activity. Retinoic acid inhibits this induction of ODC activity by TPA. […] Activity of exemplary compounds of the present invention in the above-described ODC assay is disclosed in Table 1 which provides the IC60 concentration for the respective exemplary compound. ("IC60 " is that concentration of the test compound which causes 60% inhibition in the ODC assay. By analogy, "IC80, for example, is that concentration of the test compound which causes 80% inhibition in the ODC assay.)

SMILES	IC60 (concentration causing 60% inhibition in the ODC assay (TPA-induced)) [nmols]	IC80 (concentration causing 80% inhibition in the ODC assay (TPA-induced), marked (IC80) in the IC60 column) [nmols]
CCOC(=O)c1ccc(N=Nc2ccc3c(c2)/C(=N/OC)CCC3(C)C)cc1 [Compound D3, Ethyl 4-[(8(7H)-anti-(O-methyl oxime)-5,5-dimethyl-5,6-dihydronaphthalen-2-yl)azo]benzoate]	8.4	–
CC1(C)CC=C(c2cccs2)c2ccc(C(=O)C=Cc3ccc(C(=O)O)cc3)cc21 [Compound D34, 4-[3-oxo-3-(7,8-dihydro-5-(2-thienyl)-8,8-dimethyl-2-naphthalenyl)-1-propenyl]-benzoic acid]	–	4.3
